Columns and labels:
[1] = system: Puccinia recondita f. Sp. Tritici; assay: Fungicidal activity against Puccinia recondita f. sp. tritici / wheat / leaf disc preventative (brown rust); format: in vivo; details: foliar, 200 ppm in the applied formulation, wheat leaf segments cv. Kanzler, preventative (inoculated 1 day after application), compared to untreated, read-out: disease control
Experimental: Leaf disks or leaf segments of various plant species are cut from plants grown in a greenhouse. The cut leaf disks or segments are placed in multiwell plates (24-well format) onto water agar. The leaf disks are sprayed with a test solution before (preventative) or after (curative) inoculation. Compounds to be tested are prepared as DMSO solutions (max. 10 mg/mL) which are diluted to the appropriate concentration with 0.025% Tween20 just before spraying. The inoculated leaf disks or segments are incubated under defined conditions (temperature, relative humidity, light, etc.) according to the respective test system. A single evaluation of disease level is carried out 3 to 14 days after inoculation, depending on the pathosystem. Percent disease control relative to the untreated check leaf disks or segments is then calculated. Wheat leaf segments cv. Kanzler were placed on agar in multiwell plates (24-well format) and sprayed with the formulated test compound diluted in water. The leaf disks were inoculated with a spore suspension of the fungus 1 day after application. The inoculated leaf segments were incubated at 19° C. and 75% relative humidity (rh) under a light regime of 12 hours light/12 hours darkness in a climate cabinet and the activity of a compound was assessed as percent disease control compared to untreated when an appropriate level of disease damage appears in untreated check leaf segments (7 to 9 days after application). The following compounds at 200 ppm in the applied formulation give at least 80% disease control in this test when compared to untreated control leaf disks under the same conditions, which show extensive disease development.

[2] = system: Puccinia recondita f. Sp. Tritici; assay: Fungicidal activity against Puccinia recondita f. sp. tritici / wheat / leaf disc curative (brown rust); format: in vivo; details: foliar, 24 h, 200 ppm in the applied formulation, wheat leaf segments cv. Kanzler, curative (applied 1 day after inoculation), compared to untreated, read-out: disease control
Experimental: Leaf disks or leaf segments of various plant species are cut from plants grown in a greenhouse. The cut leaf disks or segments are placed in multiwell plates (24-well format) onto water agar. The leaf disks are sprayed with a test solution before (preventative) or after (curative) inoculation. Compounds to be tested are prepared as DMSO solutions (max. 10 mg/mL) which are diluted to the appropriate concentration with 0.025% Tween20 just before spraying. The inoculated leaf disks or segments are incubated under defined conditions (temperature, relative humidity, light, etc.) according to the respective test system. A single evaluation of disease level is carried out 3 to 14 days after inoculation, depending on the pathosystem. Percent disease control relative to the untreated check leaf disks or segments is then calculated. Wheat leaf segments cv. Kanzler are placed on agar in multiwell plates (24-well format). The leaf segments are then inoculated with a spore suspension of the fungus. Plates were stored in darkness at 19C and 75% relative humidity. The formulated test compound diluted in water was applied 1 day after inoculation. The leaf segments were incubated at 19° C. and 75% relative humidity under a light regime of 12 hours light/12 hours darkness in a climate cabinet and the activity of a compound was assessed as percent disease control compared to untreated when an appropriate level of disease damage appears in untreated check leaf segments (6 to 8 days after application). The following compounds at 200 ppm in the applied formulation give at least 80% disease control in this test when compared to untreated control leaf disks under the same conditions, which show extensive disease development.

[3] = system: Glomerella lagenarium (Colletotrichum lagenarium); assay: Fungicidal activity against Glomerella lagenarium (Colletotrichum lagenarium) liquid culture / cucumber / preventative (anthracnose); format: cell-based; details: Colletotrichum orbiculare; 20 ppm in the applied formulation; liquid culture (PDB), inhibition of growth measured photometrically 3 to 4 days after application; compared to untreated; read-out: disease control
Experimental: Mycelia fragments or conidia suspensions of a fungus prepared either freshly from liquid cultures of the fungus or from cryogenic storage, are directly mixed into nutrient broth. DMSO solutions of the test compound (max. 10 mg/mL) are diluted with 0.025% Tween20 by a factor of 50 and 10 μL of this solution is pipetted into a microtiter plate (96-well format). The nutrient broth containing the fungal spores/mycelia fragments is then added to give an end concentration of the tested compound. The test plates are incubated in the dark at 24° C. and 96% relative humidity. The inhibition of fungal growth is determined photometrically after 2 to 7 days, depending on the pathosystem, and percent antifungal activity relative to the untreated check is calculated. Conidia of the fungus from cryogenic storage are directly mixed into nutrient broth (PDB—potato dextrose broth). After placing a (DMSO) solution of test compound into a microtiter plate (96-well format), the nutrient broth containing the fungal spores is added. The test plates are incubated at 24° C. and the inhibition of growth is measured photometrically 3 to 4 days after application. The following compounds at 20 ppm in the applied formulation give at least 80% disease control in this test when compared to untreated control under the same conditions, which show extensive disease development.

For `FC(F)(F)c1nc(-c2ccc(Cn3cncn3)s2)no1` [Compound 1.2, 3-[5-(1,2,4-triazol-1-ylmethyl)-2-thienyl]-5-(trifluoromethyl)-1,2,4-oxadiazole], the pest or weed control at 200 ppm [1] was no less than 80%, the pest or weed control at 200 ppm [2] was no less than 80% and the inhibition of growth at 20 ppm [3] was no less than 80%.

Work on `FC(F)(F)c1nc(-c2ccc(Cn3ccc4cccnc43)s2)no1` [Compound 1.8, 3-[5-(pyrrolo[2,3-b]pyridin-1-ylmethyl)-2-thienyl]-5-(trifluoromethyl)-1,2,4-oxadiazole] yielded a pest or weed control at 200 ppm [1] of no less than 80%, a pest or weed control at 200 ppm [2] of no less than 80% and an inhibition of growth at 20 ppm [3] of no less than 80%.

In the case of `O=[N+]([O-])c1cnn(Cc2ccc(-c3noc(C(F)(F)F)n3)s2)c1` [Compound 1.9, 3-[5-[(4-nitropyrazol-1-yl)methyl]-2-thienyl]-5-(trifluoromethyl)-1,2,4-oxadiazole], the pest or weed control at 200 ppm [1] is reported as no less than 80%, the pest or weed control at 200 ppm [2] is reported as no less than 80% and the inhibition of growth at 20 ppm [3] is reported as no less than 80%.

For `N#Cc1cnn(Cc2ccc(-c3noc(C(F)(F)F)n3)s2)c1` [Compound 1.11, 1-[[5-[5-(trifluoromethyl)-1,2,4-oxadiazol-3-yl]-2-thienyl]methyl]pyrazole-4-carbonitrile], the pest or weed control at 200 ppm [1] was no less than 80%, the pest or weed control at 200 ppm [2] was no less than 80% and the inhibition of growth at 20 ppm [3] was no less than 80%.

For `Cc1cc(N)n(Cc2ccc(-c3noc(C(F)(F)F)n3)s2)n1` [Compound 1.16, 5-methyl-2-[[5-[5-(trifluoromethyl)-1,2,4-oxadiazol-3-yl]-2-thienyl]methyl]pyrazol-3-amine], the pest or weed control at 200 ppm [1] was no less than 80%, the pest or weed control at 200 ppm [2] was no less than 80% and the inhibition of growth at 20 ppm [3] was no less than 80%.

`O=Cc1cnn(Cc2ccc(-c3noc(C(F)(F)F)n3)s2)c1` [Compound 1.22, 1-[[5-[5-(trifluoromethyl)-1,2,4-oxadiazol-3-yl]-2-thienyl]methyl]pyrazole-4-carbaldehyde] was tested, and the pest or weed control at 200 ppm [1] was no less than 80%, the pest or weed control at 200 ppm [2] was no less than 80% and the inhibition of growth at 20 ppm [3] was no less than 80%.

Work on `CC(c1ccc(-c2noc(C(F)(F)F)n2)s1)n1cc(C(=O)NCC(C)(C)C)cn1` (stereo not drawn) [Compound 1.66, N-(2,2-dimethylpropyl)-1-[1-[5-[5-(trifluoromethyl)-1,2,4-oxadiazol-3-yl]-2-thienyl]ethyl]pyrazole-4-carboxamide] yielded a pest or weed control at 200 ppm [1] of no less than 80%, a pest or weed control at 200 ppm [2] of no less than 80% and an inhibition of growth at 20 ppm [3] of no less than 80%.

`CON(C)C(=O)c1cnn(C(C)c2ccc(-c3noc(C(F)(F)F)n3)s2)c1` (stereo not drawn) [Compound 1.68, N-methoxy-N-methyl-1-[1-[5-[5-(trifluoromethyl)-1,2,4-oxadiazol-3-yl]-2-thienyl]ethyl]pyrazole-4-carboxamide] gave a pest or weed control at 200 ppm [1] of no less than 80%, a pest or weed control at 200 ppm [2] of no less than 80% and an inhibition of growth at 20 ppm [3] of no less than 80%.

With `CNC(=O)c1cnn(C(C)c2ccc(-c3noc(C(F)(F)F)n3)s2)c1` (stereo not drawn) [Compound 1.70, N-methyl-1-[1-[5-[5-(trifluoromethyl)-1,2,4-oxadiazol-3-yl]-2-thienyl]ethyl]pyrazole-4-carboxamide] the pest or weed control at 200 ppm [1] was no less than 80%, the pest or weed control at 200 ppm [2] was no less than 80% and the inhibition of growth at 20 ppm [3] was no less than 80%.

`C=CCNC(=O)c1cnn(C(C)c2ccc(-c3noc(C(F)(F)F)n3)s2)c1` (stereo not drawn) [Compound 1.73, N-allyl-1-[1-[5-[5-(trifluoromethyl)-1,2,4-oxadiazol-3-yl]-2-thienyl]ethyl]pyrazole-4-carboxamide] was tested, and the pest or weed control at 200 ppm [1] was no less than 80%, the pest or weed control at 200 ppm [2] was no less than 80% and the inhibition of growth at 20 ppm [3] was no less than 80%.

`CC(c1ccc(-c2noc(C(F)(F)F)n2)s1)n1cc(C(=O)NC2CCC2)cn1` (stereo not drawn) [Compound 1.79, N-cyclobutyl-1-[1-[5-[5-(trifluoromethyl)-1,2,4-oxadiazol-3-yl]-2-thienyl]ethyl]pyrazole-4-carboxamide] showed a pest or weed control at 200 ppm [1] of no less than 80%, a pest or weed control at 200 ppm [2] of no less than 80% and an inhibition of growth at 20 ppm [3] of no less than 80%.

`CONC(=O)c1cnn(C(C)c2ccc(-c3noc(C(F)(F)F)n3)s2)c1` (stereo not drawn) [Compound 1.82, N-methoxy-1-[1-[5-[5-(trifluoromethyl)-1,2,4-oxadiazol-3-yl]-2-thienyl]ethyl]pyrazole-4-carboxamide] showed a pest or weed control at 200 ppm [1] of no less than 80%, a pest or weed control at 200 ppm [2] of no less than 80% and an inhibition of growth at 20 ppm [3] of no less than 80%.

In the case of `CC(c1ccc(-c2noc(C(F)(F)F)n2)s1)n1cc(C(=O)NCc2ccco2)cn1` (stereo not drawn) [Compound 1.85, N-(2-furylmethyl)-1-[1-[5-[5-(trifluoromethyl)-1,2,4-oxadiazol-3-yl]-2-thienyl]ethyl]pyrazole-4-carboxamide], the pest or weed control at 200 ppm [1] is reported as no less than 80%, the pest or weed control at 200 ppm [2] is reported as no less than 80% and the inhibition of growth at 20 ppm [3] is reported as no less than 80%.

Work on `CCN(C)C(=O)c1cnn(C(C)c2ccc(-c3noc(C(F)(F)F)n3)s2)c1` (stereo not drawn) [Compound 1.88, N-ethyl-N-methyl-1-[1-[5-[5-(trifluoromethyl)-1,2,4-oxadiazol-3-yl]-2-thienyl]ethyl]pyrazole-4-carboxamide] yielded a pest or weed control at 200 ppm [1] of no less than 80%, a pest or weed control at 200 ppm [2] of no less than 80% and an inhibition of growth at 20 ppm [3] of no less than 80%.

`O=C(NC1CCC1)c1ncn(Cc2ccc(-c3noc(C(F)(F)F)n3)s2)n1` [Compound 1.91, N-cyclobutyl-1-[[5-[5-(trifluoromethyl)-1,2,4-oxadiazol-3-yl]-2-thienyl]methyl]-1,2,4-triazole-3-carboxamide] was tested, and the pest or weed control at 200 ppm [1] was no less than 80%, the pest or weed control at 200 ppm [2] was no less than 80% and the inhibition of growth at 20 ppm [3] was no less than 80%.

Work on `O=C(NC1CCCC1)c1ncn(Cc2ccc(-c3noc(C(F)(F)F)n3)s2)n1` [Compound 1.94, N-cyclopentyl-1-[[5-[5-(trifluoromethyl)-1,2,4-oxadiazol-3-yl]-2-thienyl]methyl]-1,2,4-triazole-3-carboxamide] yielded a pest or weed control at 200 ppm [1] of no less than 80%, a pest or weed control at 200 ppm [2] of no less than 80% and an inhibition of growth at 20 ppm [3] of no less than 80%.

`O=C(NCc1ccco1)c1ncn(Cc2ccc(-c3noc(C(F)(F)F)n3)s2)n1` [Compound 1.96, N-(2-furylmethyl)-1-[[5-[5-(trifluoromethyl)-1,2,4-oxadiazol-3-yl]-2-thienyl]methyl]-1,2,4-triazole-3-carboxamide] gave a pest or weed control at 200 ppm [1] of no less than 80%, a pest or weed control at 200 ppm [2] of no less than 80% and an inhibition of growth at 20 ppm [3] of no less than 80%.

Molecule `CCN(CC)C(=O)c1cnn(Cc2ccc(-c3noc(C(F)(F)F)n3)s2)c1` [Compound 1.113, N,N-diethyl-1-[[5-[5-(trifluoromethyl)-1,2,4-oxadiazol-3-yl]-2-thienyl]methyl]pyrazole-4-carboxamide] has a pest or weed control at 200 ppm [1] of no less than 80% and a pest or weed control at 200 ppm [2] of no less than 80%.

For `CNC(=O)c1nccn1Cc1ccc(-c2noc(C(F)(F)F)n2)s1` [Compound 1.176, N-methyl-1-[[5-[5-(trifluoromethyl)-1,2,4-oxadiazol-3-yl]-2-thienyl]methyl]imidazole-2-carboxamide], the pest or weed control at 200 ppm [1] was no less than 80% and the pest or weed control at 200 ppm [2] was no less than 80%.

`O=C(NC1CC1)c1nccn1Cc1ccc(-c2noc(C(F)(F)F)n2)s1` [Compound 1.177, N-cyclopropyl-1-[[5-[5-(trifluoromethyl)-1,2,4-oxadiazol-3-yl]-2-thienyl]methyl]imidazole-2-carboxamide] was tested, and the pest or weed control at 200 ppm [1] was no less than 80% and the pest or weed control at 200 ppm [2] was no less than 80%.
